Experimental data taken from ChEMBL document CHEMBL1137148, “Synthesis, activity, metabolic stability, and pharmacokinetics of glucocorticoid receptor modulator-statin hybrids” (Bioorg Med Chem Lett, 2004).

molecular target: T1, Glucocorticoid receptor (Rattus norvegicus, UniProt P06536); assay: Inhibition of dexamethasone-induced glucocorticoid receptor mediated tyrosine aminotransferase in rat hepatocytes; assay type: functional, cell-based, Hepatocyte
T1 sequence (P06536 whole entry): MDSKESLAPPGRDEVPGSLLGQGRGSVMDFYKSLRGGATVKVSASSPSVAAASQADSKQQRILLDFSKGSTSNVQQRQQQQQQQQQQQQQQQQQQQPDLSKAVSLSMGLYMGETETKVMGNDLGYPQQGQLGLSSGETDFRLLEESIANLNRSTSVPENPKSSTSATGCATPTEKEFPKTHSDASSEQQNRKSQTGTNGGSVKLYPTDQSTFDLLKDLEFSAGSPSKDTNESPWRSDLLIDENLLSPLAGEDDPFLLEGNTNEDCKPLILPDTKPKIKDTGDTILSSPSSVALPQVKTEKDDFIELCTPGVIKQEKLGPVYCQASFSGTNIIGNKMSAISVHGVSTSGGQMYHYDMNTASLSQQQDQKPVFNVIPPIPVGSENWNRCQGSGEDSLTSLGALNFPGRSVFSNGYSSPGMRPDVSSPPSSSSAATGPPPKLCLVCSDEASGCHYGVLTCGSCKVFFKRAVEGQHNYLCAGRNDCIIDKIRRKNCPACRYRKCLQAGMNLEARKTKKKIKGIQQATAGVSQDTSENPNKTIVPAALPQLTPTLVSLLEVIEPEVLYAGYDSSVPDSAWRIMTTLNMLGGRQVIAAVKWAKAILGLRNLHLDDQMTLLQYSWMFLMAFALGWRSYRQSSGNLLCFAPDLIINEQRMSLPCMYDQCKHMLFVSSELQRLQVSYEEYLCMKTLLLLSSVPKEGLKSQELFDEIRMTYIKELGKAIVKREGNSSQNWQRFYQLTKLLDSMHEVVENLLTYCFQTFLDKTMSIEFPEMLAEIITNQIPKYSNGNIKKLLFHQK

IC50	SMILES
> 30 µM	Cc1c(NS(C)(=O)=O)cccc1N(Cc1ccc(Oc2ccccc2)cc1)Cc1ccc(F)cc1F
> 30 µM	Cc1c(NS(C)(=O)=O)cccc1N(Cc1ccccc1)Cc1ccc(Oc2ccc(OC[C@@H](O)C[C@@H](O)CC(=O)O)cc2)cc1
> 30 µM	Cc1c(NS(C)(=O)=O)cccc1N(Cc1ccc(Oc2cccc(OC[C@@H](O)C[C@@H](O)CC(=O)O)c2)cc1)Cc1ccc(F)cc1F
> 30 µM	Cc1c(NS(C)(=O)=O)cccc1N(Cc1ccc(Oc2cccc(OC[C@@H]3C[C@@H](O)CC(=O)O3)c2)cc1)Cc1ccc(F)cc1F
0.13 µM	CC#C[C@]1(O)CC[C@H]2[C@@H]3CCC4=CC(=O)CCC4=C3[C@@H](c3ccc(N(C)C[C@@H](O)C[C@@H](O)CC(=O)O)cc3)C[C@@]21C
0.14 µM	CC#C[C@]1(O)CC[C@H]2[C@@H]3CCC4=CC(=O)CCC4=C3[C@@H](c3ccc(N(C)C[C@@H]4C[C@@H](O)CC(=O)O4)cc3)C[C@@]21C
> 30 µM	Cc1c(NS(C)(=O)=O)cccc1N(Cc1ccccc1)Cc1ccc(Oc2ccc(OC[C@@H]3C[C@@H](O)CC(=O)O3)cc2)cc1
0.22 µM	CC#C[C@]1(O)CC[C@H]2[C@@H]3CCC4=CC(=O)CCC4=C3[C@@H](c3ccc(N(C)C[C@@H](O)CC(=O)O)cc3)C[C@@]21C
0.56 µM	CC#C[C@]1(O)CC[C@H]2[C@@H]3CCC4=CC(=O)CCC4=C3[C@@H](c3ccc(OC[C@@H](O)CC(O)CC(=O)O)cc3)C[C@@]21C (single isomer, unassigned)

molecular target: T2, Progesterone receptor (Homo sapiens, UniProt P06401); assay: Inhibition of human progesterone receptor
T2 sequence (P06401 whole entry): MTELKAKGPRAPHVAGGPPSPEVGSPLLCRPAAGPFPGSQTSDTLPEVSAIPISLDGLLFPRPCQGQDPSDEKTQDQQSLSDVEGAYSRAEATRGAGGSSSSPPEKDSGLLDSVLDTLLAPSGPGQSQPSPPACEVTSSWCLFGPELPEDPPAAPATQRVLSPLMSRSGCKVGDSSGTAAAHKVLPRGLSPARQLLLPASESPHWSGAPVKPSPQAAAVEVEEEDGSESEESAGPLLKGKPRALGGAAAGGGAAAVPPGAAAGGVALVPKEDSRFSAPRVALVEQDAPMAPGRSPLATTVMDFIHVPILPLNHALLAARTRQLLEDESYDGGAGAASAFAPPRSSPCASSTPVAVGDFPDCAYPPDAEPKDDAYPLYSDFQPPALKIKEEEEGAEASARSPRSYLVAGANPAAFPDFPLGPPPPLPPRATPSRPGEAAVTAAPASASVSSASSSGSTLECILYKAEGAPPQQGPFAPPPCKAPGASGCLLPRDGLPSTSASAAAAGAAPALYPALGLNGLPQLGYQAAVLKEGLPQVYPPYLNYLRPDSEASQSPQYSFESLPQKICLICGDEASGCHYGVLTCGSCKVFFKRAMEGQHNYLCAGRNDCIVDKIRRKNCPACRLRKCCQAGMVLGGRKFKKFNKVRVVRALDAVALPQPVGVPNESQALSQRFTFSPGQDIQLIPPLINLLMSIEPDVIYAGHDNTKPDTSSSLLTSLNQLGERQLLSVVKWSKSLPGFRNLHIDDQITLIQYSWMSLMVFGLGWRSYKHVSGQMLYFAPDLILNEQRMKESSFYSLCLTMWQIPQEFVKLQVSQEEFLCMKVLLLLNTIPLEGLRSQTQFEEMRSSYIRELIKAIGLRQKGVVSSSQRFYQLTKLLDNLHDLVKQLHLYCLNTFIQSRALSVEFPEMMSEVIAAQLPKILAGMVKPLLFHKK

IC50	SMILES
0.032 µM	CC#C[C@]1(O)CC[C@H]2[C@@H]3CCC4=CC(=O)CCC4=C3[C@@H](c3ccc(N(C)C[C@@H](O)C[C@@H](O)CC(=O)O)cc3)C[C@@]21C
0.0038 µM	CC#C[C@]1(O)CC[C@H]2[C@@H]3CCC4=CC(=O)CCC4=C3[C@@H](c3ccc(N(C)C[C@@H]4C[C@@H](O)CC(=O)O4)cc3)C[C@@]21C
0.2 µM	CC#C[C@]1(O)CC[C@H]2[C@@H]3CCC4=CC(=O)CCC4=C3[C@@H](c3ccc(N(C)C[C@@H](O)CC(=O)O)cc3)C[C@@]21C
0.047 µM	CC#C[C@]1(O)CC[C@H]2[C@@H]3CCC4=CC(=O)CCC4=C3[C@@H](c3ccc(OC[C@@H](O)CC(O)CC(=O)O)cc3)C[C@@]21C (single isomer, unassigned)

molecular target: T3, Glucocorticoid receptor (Homo sapiens, UniProt P04150); assay: Inhibition of dexamethasone-induced glucocorticoid receptor mediated alkaline phosphatase activity; assay type: functional
T3 sequence (P04150 whole entry): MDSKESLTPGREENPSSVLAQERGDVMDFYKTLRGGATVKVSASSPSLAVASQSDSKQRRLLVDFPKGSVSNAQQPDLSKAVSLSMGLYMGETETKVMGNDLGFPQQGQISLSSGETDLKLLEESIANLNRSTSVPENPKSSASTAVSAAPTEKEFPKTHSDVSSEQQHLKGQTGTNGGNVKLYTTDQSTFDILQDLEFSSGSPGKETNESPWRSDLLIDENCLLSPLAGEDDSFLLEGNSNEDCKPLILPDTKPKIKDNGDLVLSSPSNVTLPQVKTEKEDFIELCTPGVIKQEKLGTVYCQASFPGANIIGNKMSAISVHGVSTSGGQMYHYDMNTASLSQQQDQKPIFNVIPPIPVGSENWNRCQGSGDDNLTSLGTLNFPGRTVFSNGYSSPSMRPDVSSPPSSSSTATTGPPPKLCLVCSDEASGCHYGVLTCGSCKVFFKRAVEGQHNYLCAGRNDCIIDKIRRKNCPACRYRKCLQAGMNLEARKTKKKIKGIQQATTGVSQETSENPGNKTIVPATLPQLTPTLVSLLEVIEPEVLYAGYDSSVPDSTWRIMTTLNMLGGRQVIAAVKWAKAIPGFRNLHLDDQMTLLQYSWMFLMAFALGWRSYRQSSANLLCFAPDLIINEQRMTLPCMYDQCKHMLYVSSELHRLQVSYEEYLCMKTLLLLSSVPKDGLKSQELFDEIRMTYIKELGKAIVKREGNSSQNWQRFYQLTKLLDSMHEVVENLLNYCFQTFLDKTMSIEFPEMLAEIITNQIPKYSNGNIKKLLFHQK

IC50	SMILES
0.3 µM	Cc1c(NS(C)(=O)=O)cccc1N(Cc1ccccc1)Cc1ccc(Oc2ccc(OC[C@@H](O)C[C@@H](O)CC(=O)O)cc2)cc1
0.76 µM	Cc1c(NS(C)(=O)=O)cccc1N(Cc1ccc(Oc2cccc(OC[C@@H](O)C[C@@H](O)CC(=O)O)c2)cc1)Cc1ccc(F)cc1F
0.67 µM	Cc1c(NS(C)(=O)=O)cccc1N(Cc1ccc(Oc2cccc(OC[C@@H]3C[C@@H](O)CC(=O)O3)c2)cc1)Cc1ccc(F)cc1F
0.018 µM	CC#C[C@]1(O)CC[C@H]2[C@@H]3CCC4=CC(=O)CCC4=C3[C@@H](c3ccc(N(C)C[C@@H](O)C[C@@H](O)CC(=O)O)cc3)C[C@@]21C
0.023 µM	CC#C[C@]1(O)CC[C@H]2[C@@H]3CCC4=CC(=O)CCC4=C3[C@@H](c3ccc(N(C)C[C@@H]4C[C@@H](O)CC(=O)O4)cc3)C[C@@]21C
0.44 µM	Cc1c(NS(C)(=O)=O)cccc1N(Cc1ccccc1)Cc1ccc(Oc2ccc(OC[C@@H]3C[C@@H](O)CC(=O)O3)cc2)cc1
0.076 µM	CC#C[C@]1(O)CC[C@H]2[C@@H]3CCC4=CC(=O)CCC4=C3[C@@H](c3ccc(N(C)C[C@@H](O)CC(=O)O)cc3)C[C@@]21C
2.9 µM	CC#C[C@]1(O)CC[C@H]2[C@@H]3CCC4=CC(=O)CCC4=C3[C@@H](c3ccc(OC[C@@H](O)CC(O)CC(=O)O)cc3)C[C@@]21C (single isomer, unassigned)

molecular target: T3, Glucocorticoid receptor

IC50	SMILES
0.0021 µM	Cc1c(NS(C)(=O)=O)cccc1N(Cc1ccccc1)Cc1ccc(Oc2ccc(OC[C@@H](O)C[C@@H](O)CC(=O)O)cc2)cc1
0.015 µM	Cc1c(NS(C)(=O)=O)cccc1N(Cc1ccc(Oc2cccc(OC[C@@H](O)C[C@@H](O)CC(=O)O)c2)cc1)Cc1ccc(F)cc1F
0.025 µM	Cc1c(NS(C)(=O)=O)cccc1N(Cc1ccc(Oc2cccc(OC[C@@H]3C[C@@H](O)CC(=O)O3)c2)cc1)Cc1ccc(F)cc1F
0.0068 µM	CC#C[C@]1(O)CC[C@H]2[C@@H]3CCC4=CC(=O)CCC4=C3[C@@H](c3ccc(N(C)C[C@@H](O)C[C@@H](O)CC(=O)O)cc3)C[C@@]21C
0.0023 µM	CC#C[C@]1(O)CC[C@H]2[C@@H]3CCC4=CC(=O)CCC4=C3[C@@H](c3ccc(N(C)C[C@@H]4C[C@@H](O)CC(=O)O4)cc3)C[C@@]21C
0.0021 µM	Cc1c(NS(C)(=O)=O)cccc1N(Cc1ccccc1)Cc1ccc(Oc2ccc(OC[C@@H]3C[C@@H](O)CC(=O)O3)cc2)cc1
0.037 µM	CC#C[C@]1(O)CC[C@H]2[C@@H]3CCC4=CC(=O)CCC4=C3[C@@H](c3ccc(N(C)C[C@@H](O)CC(=O)O)cc3)C[C@@]21C
0.0092 µM	CC#C[C@]1(O)CC[C@H]2[C@@H]3CCC4=CC(=O)CCC4=C3[C@@H](c3ccc(OC[C@@H](O)CC(O)CC(=O)O)cc3)C[C@@]21C (single isomer, unassigned)
